Source: PMC4279406, “Simultaneous targeting of PI3Kδ and a PI3Kδ-dependent MEK1/2-Erk1/2 pathway for therapy in pediatric B-cell acute lymphoblastic leukemia” (Oncotarget, 2014)

Legend:
Raji-R cells = assay: Signaling by Western blot in Raji-R cells; type: cell-based, human; conditions: 1 h
Procedure: Raji and SU-DHL-6 cells were treated with X-370 for 1 h (left panel) or treated with 0.5 μM X-370 for indicated times (middle panel). Right panel, Raji cells were incubated in fresh medium following treatment with 0.5 μM X-370 for 1 h. Indicated proteins were detected. (B) Raji-R (the rituximab-resistant derivatives of Raji cells) cells were resistant to X-370. The activity of X-370 on the proliferation of Raji parent and Raji-R cells was determined by CCK-8 assay as described in the methods section. (C) X-370 blocked phosphorylation of Akt but not Erk1/2 in Raji-R cells. Raji-R cells were treated with X-370 for 1h and indicated proteins were detected. Data shown are representative from three independent experiments.
Simultaneous targeting of PI3Kδ and a PI3Kδ-dependent MEK1/2-Erk1/2 pathway for therapy in pediatric B-cell acute lymphoblastic […]
Cells were treated as indicated conditions and then subjected to lysate to perform standard Western blot as described previously1. Briefly, whole-cell lysates and SDS-loading buffer diluted cell fractions were analyzed on SDS-PAGE gels. […]
Raji cells were treated with or without X-370 at 1 μM, 5μM and 10 μM for 24, 48 and 72 hours, thenwere measured using the Caspase-Glo® 3/7 Assay (Promega, US) following the protocol and relative caspase-3/7 activity was normalized to cell number which DMSO control was the base line. […]

PI3Kδ = PI3Kδ (Homo sapiens, UniProt O00329); assay: Kinase Profiler lipid kinase IC50; type: biochemical; design: purchased Millipore (Kinase Profiler Services, United Kingdom); conditions: ATP at Km of the isoform; 10-point half-log dilution from 1000 nM
Procedure: Figure 1 Structure of X-370 and its inhibitory activity against lipid kinases (A) Chemical structure of X-370. (B) X-370 docked to the crystal structure of PI3Kδ. The model was generated based on the co-crystal structure of PI3Kδ and ZSTK474 (PDB ID: 2WXL). (C) IC50 of X-370 against PI3Kδ increased along with ATP concentration. […] Data was obtained from Kinase Profiler Services (Millipore, United Kingdom). Briefly, X-370 was solved in DMSO at a concentration of 10 mM, 10-point kinase inhibitory activity was measured over concentrations in a half-log dilution series started at 1000 nM with ATP at a concentration consistent with Km of each isoform of class I PI3K and IC50s were calculated. Relative kinase activity in the presence of 10 μM X-370 compared to DMSO control was measured for the rest of lipid kinases. […]
In vitro kinase profile assays were analyzed by the Kinase Profiler Service (Millipore, United Kingdom) following its guidelines. […] The PI3K kinase activity was determined in the increasing concentration of ATP and X-370 with PI3-Kinase HTRF™ Assay kit (Millipore) as described previously.

Flt1 = biological target: T1, Flt1 (Homo sapiens, UniProt P17948); assay: KinaseProfiler protein kinase activity; type: biochemical; conditions: 10 μM X-370
T1 construct: purchased Millipore KinaseProfiler
Procedure: (§1) In vitro kinase profile assays were analyzed by the Kinase Profiler Service (Millipore, United Kingdom) following its guidelines. A GST-tagged human p110δ and regulatory full-length p85 were co-expressed in insect cell Sf9. Recombinant protein was extracted by affinity purification. The PI3K kinase activity was determined in the increasing concentration of ATP and X-370 with PI3-Kinase HTRF™ Assay kit (Millipore) as described previously. […]
(§2) Table S1: Inhibitory activity of X-370 against protein kinases
(§3) kinome at 10 μM. The relative kianse activity left in the presence of 10 μM were shown (Mi llipore
(§4) Kinase activity (% of control) Kinase activity (% of control) Kinase activity (% of control)
(§5) CDK1/cyclinB 97 Lck activated 89 Ret 125

Plk1 = biological target: T2, Plk1 (Homo sapiens, UniProt P53350); assay: KinaseProfiler protein kinase activity; type: biochemical; conditions: 10 μM X-370
T2 construct: purchased Millipore KinaseProfiler
Procedure: as §1, §2, §3, §4, §5

IKK α = biological target: T3, IKK α (Homo sapiens, UniProt O15111); assay: KinaseProfiler protein kinase activity; type: biochemical; conditions: 10 μM X-370
T3 construct: purchased Millipore KinaseProfiler
Procedure: as §1, §2, §3, §4, §5

MEK1 = biological target: T4, MEK1 (Homo sapiens, UniProt Q02750); assay: KinaseProfiler protein kinase activity; type: biochemical; conditions: 10 μM X-370
T4 construct: purchased Millipore KinaseProfiler
Procedure: as §1, §2, §3, §4, §5

JAK2 = biological target: T5, JAK2 (Homo sapiens, UniProt O60674); assay: KinaseProfiler protein kinase activity; type: biochemical; conditions: 10 μM X-370
T5 construct: purchased Millipore KinaseProfiler
Procedure: as §1, §2, §3, §4, §5

T1 sequence (P17948 27-1338): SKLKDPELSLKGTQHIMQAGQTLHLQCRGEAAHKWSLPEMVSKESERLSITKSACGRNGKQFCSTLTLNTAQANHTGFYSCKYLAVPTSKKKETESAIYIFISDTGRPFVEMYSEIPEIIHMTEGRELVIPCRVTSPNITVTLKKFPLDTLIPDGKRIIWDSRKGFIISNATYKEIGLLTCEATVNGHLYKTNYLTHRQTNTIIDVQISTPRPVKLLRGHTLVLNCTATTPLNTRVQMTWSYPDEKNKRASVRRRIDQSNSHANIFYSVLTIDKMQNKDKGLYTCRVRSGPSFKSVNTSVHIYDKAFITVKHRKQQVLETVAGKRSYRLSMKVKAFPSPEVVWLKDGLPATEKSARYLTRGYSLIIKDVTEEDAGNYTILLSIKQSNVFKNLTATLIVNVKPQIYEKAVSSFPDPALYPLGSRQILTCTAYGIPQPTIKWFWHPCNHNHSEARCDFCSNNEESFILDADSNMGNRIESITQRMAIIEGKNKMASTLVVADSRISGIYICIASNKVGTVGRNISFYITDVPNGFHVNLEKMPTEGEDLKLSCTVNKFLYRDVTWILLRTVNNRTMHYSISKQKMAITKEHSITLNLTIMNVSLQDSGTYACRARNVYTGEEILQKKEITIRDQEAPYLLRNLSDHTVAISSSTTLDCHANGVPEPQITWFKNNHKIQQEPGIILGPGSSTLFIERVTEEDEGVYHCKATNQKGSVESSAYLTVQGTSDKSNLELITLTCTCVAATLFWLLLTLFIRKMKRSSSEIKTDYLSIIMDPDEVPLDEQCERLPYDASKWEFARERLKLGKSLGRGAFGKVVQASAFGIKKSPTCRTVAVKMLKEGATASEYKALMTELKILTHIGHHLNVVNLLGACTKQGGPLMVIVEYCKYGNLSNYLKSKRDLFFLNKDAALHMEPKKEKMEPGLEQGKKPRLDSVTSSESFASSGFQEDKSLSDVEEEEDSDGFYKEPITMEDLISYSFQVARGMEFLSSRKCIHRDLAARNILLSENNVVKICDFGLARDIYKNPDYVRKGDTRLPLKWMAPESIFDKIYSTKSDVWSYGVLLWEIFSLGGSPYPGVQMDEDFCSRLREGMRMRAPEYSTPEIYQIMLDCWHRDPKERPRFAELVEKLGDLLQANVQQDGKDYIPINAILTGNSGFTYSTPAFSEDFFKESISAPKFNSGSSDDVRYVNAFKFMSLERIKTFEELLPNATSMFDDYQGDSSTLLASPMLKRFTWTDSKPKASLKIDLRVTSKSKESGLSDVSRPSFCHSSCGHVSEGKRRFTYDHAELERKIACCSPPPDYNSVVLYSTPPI
T3 sequence (O15111 whole entry): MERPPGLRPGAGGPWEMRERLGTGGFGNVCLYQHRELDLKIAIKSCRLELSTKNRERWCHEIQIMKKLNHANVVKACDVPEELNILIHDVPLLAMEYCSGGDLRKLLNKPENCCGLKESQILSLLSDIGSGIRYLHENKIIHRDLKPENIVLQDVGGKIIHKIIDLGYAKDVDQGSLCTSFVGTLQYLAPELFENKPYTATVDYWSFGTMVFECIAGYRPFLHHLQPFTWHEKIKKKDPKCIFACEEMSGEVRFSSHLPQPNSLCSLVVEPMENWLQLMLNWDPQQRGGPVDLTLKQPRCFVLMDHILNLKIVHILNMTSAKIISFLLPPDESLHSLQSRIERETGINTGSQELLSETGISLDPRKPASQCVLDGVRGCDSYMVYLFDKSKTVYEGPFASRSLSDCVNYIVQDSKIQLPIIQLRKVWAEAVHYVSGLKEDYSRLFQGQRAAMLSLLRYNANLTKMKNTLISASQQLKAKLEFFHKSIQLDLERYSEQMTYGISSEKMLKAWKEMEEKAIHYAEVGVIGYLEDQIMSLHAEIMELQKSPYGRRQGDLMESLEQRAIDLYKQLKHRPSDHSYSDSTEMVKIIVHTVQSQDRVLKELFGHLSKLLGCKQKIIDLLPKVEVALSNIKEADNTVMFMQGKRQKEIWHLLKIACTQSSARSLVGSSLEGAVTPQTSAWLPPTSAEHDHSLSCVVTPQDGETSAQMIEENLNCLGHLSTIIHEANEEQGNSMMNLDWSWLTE
T5 sequence (O60674 whole entry): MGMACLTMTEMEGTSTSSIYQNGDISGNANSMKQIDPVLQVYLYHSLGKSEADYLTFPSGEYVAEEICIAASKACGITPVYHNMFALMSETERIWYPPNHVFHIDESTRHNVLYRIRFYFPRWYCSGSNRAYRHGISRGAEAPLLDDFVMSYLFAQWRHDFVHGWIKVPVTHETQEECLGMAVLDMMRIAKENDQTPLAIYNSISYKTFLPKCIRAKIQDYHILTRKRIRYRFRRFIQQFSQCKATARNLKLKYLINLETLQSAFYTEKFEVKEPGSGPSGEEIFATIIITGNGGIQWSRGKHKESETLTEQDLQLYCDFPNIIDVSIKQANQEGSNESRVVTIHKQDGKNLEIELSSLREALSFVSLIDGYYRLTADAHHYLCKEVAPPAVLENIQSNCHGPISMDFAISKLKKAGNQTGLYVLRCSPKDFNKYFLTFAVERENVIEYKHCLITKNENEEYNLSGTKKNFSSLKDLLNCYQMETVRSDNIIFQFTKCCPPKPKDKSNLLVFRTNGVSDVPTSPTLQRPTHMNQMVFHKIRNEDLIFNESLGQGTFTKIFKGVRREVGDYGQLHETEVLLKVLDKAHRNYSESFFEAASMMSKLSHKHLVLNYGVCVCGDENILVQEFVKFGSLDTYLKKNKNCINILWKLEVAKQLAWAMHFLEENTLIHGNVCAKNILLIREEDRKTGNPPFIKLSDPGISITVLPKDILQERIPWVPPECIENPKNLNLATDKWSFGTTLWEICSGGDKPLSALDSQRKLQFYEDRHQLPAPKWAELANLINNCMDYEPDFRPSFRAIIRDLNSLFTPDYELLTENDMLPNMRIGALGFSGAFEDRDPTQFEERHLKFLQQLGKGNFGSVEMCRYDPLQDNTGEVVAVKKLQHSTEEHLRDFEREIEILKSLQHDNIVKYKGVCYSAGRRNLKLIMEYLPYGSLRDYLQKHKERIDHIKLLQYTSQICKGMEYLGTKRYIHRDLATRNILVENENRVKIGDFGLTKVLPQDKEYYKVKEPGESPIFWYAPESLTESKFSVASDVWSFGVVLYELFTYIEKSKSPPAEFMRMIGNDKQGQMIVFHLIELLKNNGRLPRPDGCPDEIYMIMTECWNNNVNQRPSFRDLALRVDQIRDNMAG
T2 sequence (P53350 whole entry): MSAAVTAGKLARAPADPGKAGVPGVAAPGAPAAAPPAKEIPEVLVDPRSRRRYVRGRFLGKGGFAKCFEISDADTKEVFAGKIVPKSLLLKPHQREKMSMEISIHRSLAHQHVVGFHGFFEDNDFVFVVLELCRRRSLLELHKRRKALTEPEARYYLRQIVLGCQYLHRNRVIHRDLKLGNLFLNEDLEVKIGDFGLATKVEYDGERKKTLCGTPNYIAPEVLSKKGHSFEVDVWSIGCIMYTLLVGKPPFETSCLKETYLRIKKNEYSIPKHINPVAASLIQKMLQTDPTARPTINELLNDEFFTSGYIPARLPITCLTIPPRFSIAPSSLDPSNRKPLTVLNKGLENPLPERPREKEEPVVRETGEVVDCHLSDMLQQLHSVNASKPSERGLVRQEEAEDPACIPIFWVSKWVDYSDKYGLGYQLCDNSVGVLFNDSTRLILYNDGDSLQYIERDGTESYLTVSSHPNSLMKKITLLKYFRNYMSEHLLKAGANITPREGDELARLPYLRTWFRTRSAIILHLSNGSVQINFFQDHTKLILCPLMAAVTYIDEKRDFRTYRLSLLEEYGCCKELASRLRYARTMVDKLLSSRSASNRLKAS
T4 sequence (Q02750 whole entry): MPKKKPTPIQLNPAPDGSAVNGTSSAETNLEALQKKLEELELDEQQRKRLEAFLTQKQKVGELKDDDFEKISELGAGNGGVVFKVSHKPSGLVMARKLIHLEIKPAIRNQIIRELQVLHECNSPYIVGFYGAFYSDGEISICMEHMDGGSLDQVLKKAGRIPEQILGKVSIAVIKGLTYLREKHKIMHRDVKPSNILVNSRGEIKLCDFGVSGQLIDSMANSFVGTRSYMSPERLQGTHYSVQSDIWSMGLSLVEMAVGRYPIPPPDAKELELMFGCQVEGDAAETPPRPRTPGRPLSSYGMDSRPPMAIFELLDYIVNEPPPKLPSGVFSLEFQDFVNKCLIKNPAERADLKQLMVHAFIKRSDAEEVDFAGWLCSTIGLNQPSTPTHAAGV

IC50 (PI3Kδ): 7 nM
Kinase activity (% of control) (Flt1): 99 % of control
Kinase activity (% of control) (Plk1): 100 % of control
Kinase activity (% of control) (IKK α): 95 % of control
Kinase activity (% of control) (MEK1): 109 % of control
Kinase activity (% of control) (JAK2): 109 % of control
SMILES: O=C(N1CCCC1)N1CCC(n2cnc3c(-n4c(C(F)F)nc5ccccc54)nc(N4CCOCC4)nc32)CC1 [X-370]
Akt and S6k1 phosphorylation (Raji-R cells): significantly inhibited
level of phosphorylated Erk1/2 (Raji-R cells): negligible activity
